Calls of active or inactive are those of the source.
Legend:
Cytochrome P450 2D6 = Cytochrome P450 2D6 (Homo sapiens, UniProt P10635);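 also: CYP2D6 member of a cytochrome P450 panel assay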
Protein Wnt-3a = Protein Wnt-3a (Mus musculus, UniProt P27467); assay: Wnt3a-driven reporter signaling inhibition, dose response, selectivity assay for Gli-SUFU antagonist project, Wnt-LIGHT cells, luminescence (AID 651570); format: functional; conditions: read-out: IC50_Mean;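 also: Wnt-LIGHT reporter cells stimulated with conditioned medium from Wnt3a-producing cells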
Cytochrome P450 3A4 = Cytochrome P450 3A4 (Homo sapiens, UniProt P08684);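 also: CYP3A4 tested as one member of a cytochrome P450 panel screen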
[1] = target: Ras and Rab interactor 1/Tyrosine-protein kinase ABL1 (Homo sapiens, UniProt P00519+Q13671); format: functional;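 also: biochemical TR-FRET dose-response test measuring inhibition of binding between Rin1 and Abl proteins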
[2] = target: T1, Protein disulfide-isomerase (Homo sapiens, UniProt P07237); assay: PDI inhibitors, insulin turbidity readout, dose response, biochemical, absorbance, cherry-picked samples, set 2 (AID 624274); format: functional
[3] = target: T1, Protein disulfide-isomerase; assay: PDI inhibitors, insulin aggregation turbidity, dose response, biochemical, absorbance, cherry-picked samples (AID 602350); format: functional
[4] = inhibitors of HIV Env-driven cell fusion, dose response, cherry-pick (AID 652057); format: functional, cell-based
HEK293 [5] = assay: cells; format: functional, cell-based; conditions: Homo sapiens
[6] = inhibitors of clade B AD8 Env fusion, dose response, cell-based, cherry-pick (AID 652062); format: functional;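 also: luciferase signal from cell-cell fusion driven by HIV-1 clade B AD8 Env; potency is for inhibitors of fusion seen as a drop in luminescence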
[7] = target: Nucleotide-binding oligomerization domain-containing protein 2 (Homo sapiens, UniProt Q9HC29); assay: NOD2 signaling inhibitors, cell-based, luminescence, uHTS, HEK293 (AID 1566); format: functional
Interleukin-8 = target: T2, Interleukin-8 (Homo sapiens, UniProt P10145); assay: Dose Response confirmation of uHTS small molecule hits for cystic fibrosis induced NFkb Inhibitors in a PAF-induced IL8 counterscreen.; format: functional; conditions: read-out: IC50_Mean
T2 sequence (P10145 whole entry): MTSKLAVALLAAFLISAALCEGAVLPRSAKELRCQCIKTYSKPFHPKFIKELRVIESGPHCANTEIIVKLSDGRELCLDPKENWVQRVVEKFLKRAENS

HEK293 [8] = assay: NOD2 signaling inhibitors in MDP-stimulated cells, cell-based, uHTS, luminescence (AID 2001); format: functional; conditions: Homo sapiens
HEK293 [9] = assay: cells; format: functional, cell-based; conditions: Homo sapiens; remark: listed apart in the source
[10] = ZM109 Env clade C HIV-1 fusion inhibitors, dose response, HeLa effector, CEM target cells, luciferase, cherry-pick (AID 652058); format: functional, cell-based
[11] = off-target signal loss in HeLa-CEM21 co-culture – HeLa F-luc CTL cells, cherry-picked, counter-screen for HIV-1 Env fusion inhibitor project, dose response (AID 652040); format: functional, cell-based;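 also: potency for signal decrease marking cytotoxic or nonspecific inhibition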
HEK293 [12] = assay: NOD1 signaling inhibitors, primary screen, cell-based, luminescence, uHTS (AID 1578); format: functional; conditions: Homo sapiens
HEK293 [13] = assay: cells; format: functional, cell-based; conditions: Homo sapiens; remark: listed apart in the source
[14] = target: Voltage-dependent T-type calcium channel subunit alpha-1H (Homo sapiens, UniProt O95180); format: functional;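 also: channel activity triggered by adding a high calcium stimulation buffer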
[15] = ARNT/TACC3 interaction disruptors, potency, confirmation, biochemical, AlphaScreen, cherry-picked samples (AID 651703); format: functional, Homo sapiens;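 also: His-tagged ARNT PAS-B domain paired with GST-TACC3 E629A dimer coactivator fragment; potency of inhibitors that break up the complex and lower AlphaScreen signal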
PglD = PglD (Campylobacter jejuni, UniProt O86157); assay: PglD acetyltransferase inhibitors, dose response, biochemical, DTNB absorbance, cherry-picked samples, set 2 (AID 624257); format: functional
[16] = NIH-3T3 fibroblast cytotoxicity, dose response, cytotoxicity control for antifungal single agent project, cell-based, Alamar Blue, dry powder (AID 602188); format: functional
[17] = target: ATP-dependent translocase ABCB1 (Homo sapiens, UniProt P08183); assay: ABCB1 efflux inhibitor potency, dose response, Jurkat-DNR cells, JC-1, flow cytometry, set 2 (AID 504569); format: functional; conditions: read-out: EC50_MICROM_;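 also: potency of pump inhibitors that raise cellular JC-1 green fluorescence up to the nicardipine level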
H9c2 = assay: cells; format: functional, cell-based; conditions: Rattus norvegicus, H9c2, Myocardium;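 also: confirmatory concentration-response retest of ultra-high-throughput screening hits for modulation of myocardial damage; cell death induced by hydrogen peroxide oxidative stress; compound pretreatment for 60 min then peroxide exposure for 2 h; potency is for protecting the cells against peroxide damage rather than for killing them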
[18] = target: T3, Kappa-type opioid receptor (Homo sapiens, UniProt P41145); format: functional
[19] = target: Heat shock protein HSP 90-alpha (Homo sapiens, UniProt P07900); format: functional, organism-based
[20] = inhibitors of intracellular T. cruzi replication, confirmation, NIH3T3 host cells, beta-gal luminescence (AID 2044); format: functional, cell-based;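 also: intracellular parasites grown in NIH/3T3 mouse fibroblasts as host cells; luminescent beta-galactosidase reporter signal from transgenic T. cruzi replicating inside host cells; inhibitors lower the luminescence signal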
Melanocortin receptor 4 = Melanocortin receptor 4 (Homo sapiens, UniProt P32245); assay: MC4R antagonist potency on cAMP, dose response, cell-based, TR-FRET, biased antagonists (AID 602298); format: functional;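 also: antagonist potency against agonist-stimulated cAMP production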
[21] = target: T4, Short transient receptor potential channel 4 (Mus musculus, UniProt Q9QUQ5); assay: mouse TRPC4 channel inhibitors, dose response, cell-based, HEK293 TRPC4/mu-opioid, Fluo-4 calcium (AID 434942); format: functional;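 also: potency of inhibitors blocking the TRPC4 calcium response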
T4 sequence (Q9QUQ5 whole entry): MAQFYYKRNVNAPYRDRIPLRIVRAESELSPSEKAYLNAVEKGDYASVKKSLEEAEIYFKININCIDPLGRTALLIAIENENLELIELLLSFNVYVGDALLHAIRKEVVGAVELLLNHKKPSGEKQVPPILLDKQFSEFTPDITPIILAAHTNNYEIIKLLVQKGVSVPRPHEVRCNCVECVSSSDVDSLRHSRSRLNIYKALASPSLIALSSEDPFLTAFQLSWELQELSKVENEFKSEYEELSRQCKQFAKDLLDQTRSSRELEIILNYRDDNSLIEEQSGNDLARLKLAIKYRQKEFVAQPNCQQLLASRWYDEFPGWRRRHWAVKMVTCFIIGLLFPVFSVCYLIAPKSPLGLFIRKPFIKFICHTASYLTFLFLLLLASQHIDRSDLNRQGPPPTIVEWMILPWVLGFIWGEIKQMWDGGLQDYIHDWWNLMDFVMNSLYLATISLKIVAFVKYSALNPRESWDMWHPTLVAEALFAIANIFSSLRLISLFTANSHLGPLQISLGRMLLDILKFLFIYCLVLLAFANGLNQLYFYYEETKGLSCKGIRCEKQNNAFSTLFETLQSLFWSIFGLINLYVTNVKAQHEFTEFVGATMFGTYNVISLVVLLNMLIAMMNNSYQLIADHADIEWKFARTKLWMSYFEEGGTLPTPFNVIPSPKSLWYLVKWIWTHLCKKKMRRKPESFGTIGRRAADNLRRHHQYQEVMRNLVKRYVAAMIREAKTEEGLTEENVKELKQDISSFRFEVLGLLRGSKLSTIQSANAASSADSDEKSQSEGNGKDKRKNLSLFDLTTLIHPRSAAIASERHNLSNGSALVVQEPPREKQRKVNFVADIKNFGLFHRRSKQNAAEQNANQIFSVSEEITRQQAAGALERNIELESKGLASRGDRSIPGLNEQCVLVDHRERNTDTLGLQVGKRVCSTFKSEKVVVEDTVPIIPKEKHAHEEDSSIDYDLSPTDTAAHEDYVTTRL

Beta-galactosidase [22] = target: T5, Beta-galactosidase (Escherichia coli, UniProt Q8VNN2); format: functional
[23] = target: T6, Microphthalmia-associated transcription factor (Homo sapiens, UniProt O75030); assay: TRPM1 promoter luciferase signal decrease, dose response, MITF inhibitor project, cell-based, SK-MEL-5, cherry-picked, set 3 (AID 493073); format: functional
T6 sequence (O75030 whole entry): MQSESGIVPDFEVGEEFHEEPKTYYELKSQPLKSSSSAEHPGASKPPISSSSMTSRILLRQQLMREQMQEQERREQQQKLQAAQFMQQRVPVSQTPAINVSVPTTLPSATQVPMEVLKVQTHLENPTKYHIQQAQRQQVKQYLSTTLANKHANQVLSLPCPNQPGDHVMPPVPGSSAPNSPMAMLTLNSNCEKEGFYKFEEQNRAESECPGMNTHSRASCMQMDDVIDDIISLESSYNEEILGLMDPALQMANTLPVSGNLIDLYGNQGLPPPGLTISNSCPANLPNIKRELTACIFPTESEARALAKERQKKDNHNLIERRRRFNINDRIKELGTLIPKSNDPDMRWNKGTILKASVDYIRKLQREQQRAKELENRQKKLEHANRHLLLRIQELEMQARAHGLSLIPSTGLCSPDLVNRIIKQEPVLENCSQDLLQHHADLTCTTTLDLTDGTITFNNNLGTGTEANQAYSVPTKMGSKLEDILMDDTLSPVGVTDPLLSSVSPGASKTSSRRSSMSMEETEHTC

Mu-type opioid receptor = Mu-type opioid receptor (Homo sapiens, UniProt P35372); assay: HTS Image-Based Screen for Agonists of the MOR Receptor. [Related pubchem assays (depositor defined):AID1777, AID1785, AID1786, AID2133]; format: functional;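 also: imaging of beta-arrestin GFP recruitment into spots after receptor activation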
[24] = target: Glucose-6-phosphate 1-dehydrogenase (Homo sapiens, UniProt P11413); assay: human G6PD enzyme inhibitors, dose response, selectivity assay for P. falciparum G6PD inhibitor project, biochemical, fluorescence (AID 504792); format: functional
[25] = target: T7, Delta-type opioid receptor (Homo sapiens, UniProt P41143); assay: HTS Image-Based Screen for Agonists of the DOR Receptor. [Related pubchem assays (depositor defined):AID1777, AID1786, AID2133]; format: functional
Beta-galactosidase [26] = target: T5, Beta-galactosidase; assay: beta-galactosidase enzyme inhibitors and activators, dose response, artefact control for CCR6 antagonist project, biochemical, E. coli enzyme, set 3 (AID 504712); format: functional
[27] = target: T7, Delta-type opioid receptor; assay: HTS Image-Based Screen for Antagonists of the DOR Receptor. [Related pubchem assays (depositor defined):AID1777, AID1785, AID1786, AID2133]; format: functional
[28] = cytotoxicity toward NIH3T3 fibroblasts, dose response, counter-screen, cell-based, ATP luminescence, mouse fibroblasts (AID 2010); format: functional;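 also: cells exposed to compound for about 90 hours before reading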
[29] = nonselective inhibitors of cellular cAMP signaling, dose response, counter-screen for MC4R biased antagonist project, cell-based, TR-FRET cAMP detection (AID 602305); format: functional;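 also: U2OS cells stimulated with forskolin near its EC80 as the cAMP inducer; potency is for inhibition of forskolin-stimulated cAMP signaling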
[30] = target: T3, Kappa-type opioid receptor; format: functional; remark: listed apart in the source
[31] = target: T8, Small ubiquitin-related modifier 1 (Homo sapiens, UniProt P63165); assay: inhibitors of SUMO1 partner interactions, dose response, biochemical, FRET (AID 624383); format: functional; conditions: read-out: IC50_Mean
[32] = target: T8, Small ubiquitin-related modifier 1; assay: inhibitors of SUMO1 peptide binding, dose response, biochemical, fluorescence polarization, uHTS hits (AID 624382); format: functional; conditions: read-out: IC50_Mean
[33] = target: T9, Sentrin-specific protease 1 (Homo sapiens, UniProt Q9P0U3); assay: potency of human SENP1 inhibitors, dose response, biochemical, kinetic FRET (AID 651697); format: functional; conditions: read-out: IC50_Mean
[34] = target: T9, Sentrin-specific protease 1; assay: Dose response confirmation of small molecule inhibitors of the catalytic domain of the SUMO protease, SENP1 in a FRET assay.; format: functional; conditions: read-out: IC50_Mean
[35] = target: Nuclear receptor subfamily 5 group A member 2 (Homo sapiens, UniProt O00482); format: functional, cell-based;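 also: HEK293T cells transfected with LRH-1 and a StAR promoter luciferase reporter; potency for inhibitors that lower LRH-1 driven reporter light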
Steroidogenic factor 1 = Steroidogenic factor 1 (Homo sapiens, UniProt Q13285); assay: Counterscreen for inverse agonists of the liver receptor homolog-1 (LRH-1; NR5A2): Luminescence-based cell-based high throughput dose response assay to identify inverse agonists of the Steroidogenic Factor 1 Nuclear Receptor (SF1; NR5A1).; format: functional
[36] = StAR promoter reporter inhibition counter-screen, dose response, counter-screen for LRH-1 inverse agonist project, cell-based, luminescence, luciferase reporter (AID 651969); format: functional

T1 sequence (P07237 whole entry): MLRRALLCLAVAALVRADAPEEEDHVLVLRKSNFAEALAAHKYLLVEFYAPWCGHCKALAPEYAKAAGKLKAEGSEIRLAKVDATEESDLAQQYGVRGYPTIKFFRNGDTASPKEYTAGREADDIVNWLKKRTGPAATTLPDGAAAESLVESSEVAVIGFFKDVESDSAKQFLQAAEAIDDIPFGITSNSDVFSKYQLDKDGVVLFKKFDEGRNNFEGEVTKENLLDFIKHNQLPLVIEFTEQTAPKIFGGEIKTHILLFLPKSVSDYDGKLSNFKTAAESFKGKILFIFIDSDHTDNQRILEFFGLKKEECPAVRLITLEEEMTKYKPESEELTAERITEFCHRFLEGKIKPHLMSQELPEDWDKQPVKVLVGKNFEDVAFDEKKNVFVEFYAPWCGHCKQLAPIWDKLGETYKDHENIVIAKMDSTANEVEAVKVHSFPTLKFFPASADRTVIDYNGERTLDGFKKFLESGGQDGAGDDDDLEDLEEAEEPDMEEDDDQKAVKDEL
T8 sequence (P63165 whole entry): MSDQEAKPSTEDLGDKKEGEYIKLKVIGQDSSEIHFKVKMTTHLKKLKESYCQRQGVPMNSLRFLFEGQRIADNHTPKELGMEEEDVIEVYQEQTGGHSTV
T3 sequence (P41145 whole entry): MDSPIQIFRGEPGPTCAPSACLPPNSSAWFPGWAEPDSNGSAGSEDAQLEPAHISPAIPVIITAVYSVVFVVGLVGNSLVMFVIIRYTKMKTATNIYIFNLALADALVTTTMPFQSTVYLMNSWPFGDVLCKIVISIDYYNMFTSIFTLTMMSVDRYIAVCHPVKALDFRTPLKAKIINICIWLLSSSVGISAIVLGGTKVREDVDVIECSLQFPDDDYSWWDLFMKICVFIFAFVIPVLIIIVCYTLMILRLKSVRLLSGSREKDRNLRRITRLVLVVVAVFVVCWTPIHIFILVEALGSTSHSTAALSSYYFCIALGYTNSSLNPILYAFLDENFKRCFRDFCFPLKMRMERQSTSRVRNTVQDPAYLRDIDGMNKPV
T7 sequence (P41143 whole entry): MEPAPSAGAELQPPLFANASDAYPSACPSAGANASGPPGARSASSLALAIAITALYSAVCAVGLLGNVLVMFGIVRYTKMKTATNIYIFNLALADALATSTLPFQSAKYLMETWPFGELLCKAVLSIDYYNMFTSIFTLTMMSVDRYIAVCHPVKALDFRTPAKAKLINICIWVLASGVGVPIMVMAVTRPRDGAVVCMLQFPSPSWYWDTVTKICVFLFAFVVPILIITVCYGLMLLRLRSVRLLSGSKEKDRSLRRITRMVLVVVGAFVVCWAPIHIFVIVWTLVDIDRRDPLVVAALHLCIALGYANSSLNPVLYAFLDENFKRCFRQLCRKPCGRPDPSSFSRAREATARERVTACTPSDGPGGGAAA
T9 sequence (Q9P0U3 whole entry, the tested form may be a part): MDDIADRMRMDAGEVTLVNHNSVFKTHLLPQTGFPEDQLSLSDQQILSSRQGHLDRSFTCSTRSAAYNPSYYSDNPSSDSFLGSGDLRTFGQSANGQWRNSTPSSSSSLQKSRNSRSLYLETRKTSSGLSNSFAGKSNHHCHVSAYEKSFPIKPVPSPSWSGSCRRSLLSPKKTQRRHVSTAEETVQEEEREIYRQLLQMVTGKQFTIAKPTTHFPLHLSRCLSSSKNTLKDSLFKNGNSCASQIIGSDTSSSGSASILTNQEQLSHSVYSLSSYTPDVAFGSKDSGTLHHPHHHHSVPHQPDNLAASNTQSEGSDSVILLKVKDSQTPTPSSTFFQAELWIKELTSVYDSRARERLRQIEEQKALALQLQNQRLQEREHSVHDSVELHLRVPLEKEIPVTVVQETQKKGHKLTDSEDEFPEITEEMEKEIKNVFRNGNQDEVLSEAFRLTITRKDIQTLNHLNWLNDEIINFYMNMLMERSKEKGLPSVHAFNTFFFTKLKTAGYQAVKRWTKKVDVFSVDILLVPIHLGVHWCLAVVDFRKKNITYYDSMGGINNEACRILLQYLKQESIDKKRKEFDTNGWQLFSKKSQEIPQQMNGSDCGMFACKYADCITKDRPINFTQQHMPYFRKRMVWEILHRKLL
T5 sequence (Q8VNN2 whole entry): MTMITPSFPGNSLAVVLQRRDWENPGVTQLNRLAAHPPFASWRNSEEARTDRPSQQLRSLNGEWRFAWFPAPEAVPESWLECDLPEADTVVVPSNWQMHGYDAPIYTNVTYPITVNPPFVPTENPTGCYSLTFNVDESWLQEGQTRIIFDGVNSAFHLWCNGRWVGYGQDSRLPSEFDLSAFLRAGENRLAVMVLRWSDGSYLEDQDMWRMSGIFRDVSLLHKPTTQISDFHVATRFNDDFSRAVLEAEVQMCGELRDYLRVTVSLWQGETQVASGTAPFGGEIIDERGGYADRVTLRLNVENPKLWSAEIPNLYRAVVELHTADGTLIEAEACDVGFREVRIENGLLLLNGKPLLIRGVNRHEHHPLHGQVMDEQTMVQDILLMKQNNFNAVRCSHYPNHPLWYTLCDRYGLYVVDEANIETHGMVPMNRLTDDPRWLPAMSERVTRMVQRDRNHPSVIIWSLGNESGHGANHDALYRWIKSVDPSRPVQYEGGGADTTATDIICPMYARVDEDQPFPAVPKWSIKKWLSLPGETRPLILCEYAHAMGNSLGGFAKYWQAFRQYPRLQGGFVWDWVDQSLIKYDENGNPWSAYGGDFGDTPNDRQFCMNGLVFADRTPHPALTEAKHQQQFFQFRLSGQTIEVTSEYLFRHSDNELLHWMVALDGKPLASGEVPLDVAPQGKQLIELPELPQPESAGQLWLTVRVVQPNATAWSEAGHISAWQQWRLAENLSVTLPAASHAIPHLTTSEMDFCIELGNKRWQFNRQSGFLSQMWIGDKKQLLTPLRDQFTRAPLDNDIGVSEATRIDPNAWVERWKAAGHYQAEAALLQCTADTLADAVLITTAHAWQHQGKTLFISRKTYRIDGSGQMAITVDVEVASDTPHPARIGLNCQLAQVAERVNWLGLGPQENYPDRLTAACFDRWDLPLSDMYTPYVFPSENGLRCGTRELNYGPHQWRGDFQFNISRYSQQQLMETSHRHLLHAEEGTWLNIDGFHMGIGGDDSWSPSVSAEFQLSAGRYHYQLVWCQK
Chain of Ras and Rab interactor 1/Tyrosine-protein kinase ABL1 (P00519 whole entry): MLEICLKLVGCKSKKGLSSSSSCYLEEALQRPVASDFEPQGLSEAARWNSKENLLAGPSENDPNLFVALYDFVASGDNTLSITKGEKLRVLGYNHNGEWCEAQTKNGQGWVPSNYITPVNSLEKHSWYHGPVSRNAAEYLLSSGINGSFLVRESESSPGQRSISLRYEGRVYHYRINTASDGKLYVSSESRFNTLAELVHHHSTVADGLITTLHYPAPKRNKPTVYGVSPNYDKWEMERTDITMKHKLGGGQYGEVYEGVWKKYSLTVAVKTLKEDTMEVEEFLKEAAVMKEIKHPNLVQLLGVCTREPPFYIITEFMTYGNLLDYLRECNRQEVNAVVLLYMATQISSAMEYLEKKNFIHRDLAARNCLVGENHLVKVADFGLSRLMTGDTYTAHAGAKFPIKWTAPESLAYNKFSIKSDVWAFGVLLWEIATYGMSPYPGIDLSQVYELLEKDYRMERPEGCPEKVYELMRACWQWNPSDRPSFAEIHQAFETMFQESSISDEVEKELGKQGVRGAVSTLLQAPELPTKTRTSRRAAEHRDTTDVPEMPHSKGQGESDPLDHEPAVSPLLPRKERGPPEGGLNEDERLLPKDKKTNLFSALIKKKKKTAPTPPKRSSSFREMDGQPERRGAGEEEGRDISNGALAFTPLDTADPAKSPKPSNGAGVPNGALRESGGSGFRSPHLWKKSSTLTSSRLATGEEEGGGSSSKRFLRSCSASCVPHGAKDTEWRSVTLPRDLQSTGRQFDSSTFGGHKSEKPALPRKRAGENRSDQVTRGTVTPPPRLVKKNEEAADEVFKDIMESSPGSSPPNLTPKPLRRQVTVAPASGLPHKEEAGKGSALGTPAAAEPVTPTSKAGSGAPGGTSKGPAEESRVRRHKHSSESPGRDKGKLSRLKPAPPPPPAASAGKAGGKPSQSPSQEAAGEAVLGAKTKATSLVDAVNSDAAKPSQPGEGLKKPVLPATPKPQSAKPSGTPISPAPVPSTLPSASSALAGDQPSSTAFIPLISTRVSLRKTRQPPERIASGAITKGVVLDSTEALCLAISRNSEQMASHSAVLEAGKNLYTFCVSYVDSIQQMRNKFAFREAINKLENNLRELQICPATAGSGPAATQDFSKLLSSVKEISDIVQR
Chain of Ras and Rab interactor 1/Tyrosine-protein kinase ABL1 (Q13671 whole entry): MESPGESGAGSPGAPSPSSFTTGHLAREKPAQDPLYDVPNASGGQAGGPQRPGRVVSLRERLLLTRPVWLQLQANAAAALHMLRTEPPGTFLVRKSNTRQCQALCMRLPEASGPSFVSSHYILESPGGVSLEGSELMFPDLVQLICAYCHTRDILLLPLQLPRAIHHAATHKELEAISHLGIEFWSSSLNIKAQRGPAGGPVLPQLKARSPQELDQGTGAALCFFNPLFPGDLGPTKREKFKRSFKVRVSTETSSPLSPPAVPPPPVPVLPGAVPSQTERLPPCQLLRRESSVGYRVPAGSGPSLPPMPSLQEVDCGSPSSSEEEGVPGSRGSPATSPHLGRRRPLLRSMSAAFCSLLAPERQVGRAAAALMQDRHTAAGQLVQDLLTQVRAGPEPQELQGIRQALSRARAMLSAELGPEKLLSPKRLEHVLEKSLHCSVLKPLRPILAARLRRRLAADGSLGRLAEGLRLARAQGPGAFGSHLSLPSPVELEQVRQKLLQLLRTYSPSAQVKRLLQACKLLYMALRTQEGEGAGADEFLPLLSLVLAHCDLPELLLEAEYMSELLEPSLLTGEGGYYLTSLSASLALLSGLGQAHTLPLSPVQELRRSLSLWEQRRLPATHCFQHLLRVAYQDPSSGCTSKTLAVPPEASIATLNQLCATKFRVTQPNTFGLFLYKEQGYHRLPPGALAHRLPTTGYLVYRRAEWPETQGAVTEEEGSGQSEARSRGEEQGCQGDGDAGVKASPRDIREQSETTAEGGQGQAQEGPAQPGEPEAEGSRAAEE

Compound: FC(F)(F)c1ccc(N2CCN(c3cc(-c4ccccc4)nc4ncnn34)CC2)nc1
- AC50 (Cytochrome P450 2D6): 11.2 µM (inconclusive)
- IC50 (Protein Wnt-3a): 5.78 µM (active)
- AC50 (Cytochrome P450 3A4): inconclusive

Compound: CCOC(=O)CCCCC(=O)c1[nH]c(=O)[nH]c1Cn1ccnc1
- IC50 [1]: 12.8 µM (inactive)

Compound: CC1Cc2ccccc2N1C(=O)CSc1nnc2sc3ccccc3n12 (stereo not given)
- AC50 [2]: 0.009 µM (active)
- AC50 [3]: < 0.009 µM (active)

Compound: Cn1c(=O)c2c(nc(Oc3ccc4ccccc4c3)n2C)n(C)c1=O
- AC50 [4]: 11.6 µM (active)
- IC50 (HEK293 [5]): > 20 µM (inactive)
- AC50 [6]: 2.05 µM (active)
- EC50 [7]: 4.28 µM (active)
- IC50 (Interleukin-8): 14 µM (inactive)
- IC50 (HEK293 [8]): 3.88 µM (active)
- IC50 (HEK293 [9]): 3.32 µM (active)
- AC50 [10]: 40.2 µM (active)
- AC50 [11]: 18.4 µM (active)
- EC50 (HEK293 [12]): 6.6 µM (active)
- IC50 (HEK293 [13]): > 20 µM (inactive)

Compound: COc1ccc(C(c2nnnn2C2CCCC2)N2CCc3ccccc3C2)cc1OC (stereo not given)
- EC50 [14]: 5.07 µM (active)
- AC50 [15]: 132 µM (active)

Compound: Cc1c(C(=O)O)sc2nc(/C=C/c3cccc(O)c3)nc(O)c12
- AC50 (PglD): 4.58 µM (active)

Compound: Oc1c(CN2CCN(c3ccccc3)CC2)cc(Cl)c2cccnc12
- AC50 [16]: 0.964 µM (active)

Compound: COc1ccc(-c2cc3nc(-c4ccccc4)cc(N4CCN(C(=O)c5ccoc5)CC4)n3n2)cc1
- EC50 [17]: 0.94 µM (active)
- IC50 (H9c2): > 79 µM (inactive)

Compound: Cc1ccc(NC(=O)c2cc(N3C(=O)C=CC3=O)ccc2N2CCOCC2)cc1
- IC50 [18]: 23.7 µM
- AC50 [19]: 0.591 µM (active)
- EC50 [20]: 2.85 µM (active)
- IC50 (Melanocortin receptor 4): 11.9 µM (inactive)
- EC50 [21]: 5.31 µM (active)
- EC50 (Beta-galactosidase [22]): > 31.5 µM (inactive)
- AC50 [23]: 11.6 µM (active)
- EC50 (Mu-type opioid receptor): > 32 µM (inactive)
- IC50 [24]: 53 µM (inactive)
- EC50 [25]: > 32 µM (inactive)
- IC50 (Beta-galactosidase [26]): > 66.6 µM (inactive)
- IC50 [27]: > 32 µM (inactive)
- EC50 [28]: 6.01 µM (active)
- IC50 [29]: 39 µM (inactive)
- IC50 [30]: 8.25 µM (active)

Compound: CC(=O)c1sc(Nc2nc3cc4c(cc3s2)OCO4)nc1C
- IC50 [31]: 11.1 µM (active)
- IC50 [32]: > 66.6 µM (inactive)

Compound: Cc1nc2nonc2c2nccc(O)c12
- IC50 [33]: 8.83 µM (active)
- IC50 [34]: 8.04 µM (active)

Compound: COc1cc(C(=O)Nc2ccccc2N2CCN(S(C)(=O)=O)CC2)cc(OC)c1OC
- IC50 [35]: 14.6 µM (inactive)
- IC50 (Steroidogenic factor 1): 7.65 µM (active)
- IC50 [36]: 35.9 µM (inactive)
